Results published in the supplement of paper PMC10733146.

Assays:
Assay in all cases: viability relative to DMSO control (fraction); higher = less drug effect (more viable cells)
Conditions in all cases: 48 h
[1] = test system: primary CLL patient cells (S043)
Procedure, shortened: (§1)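 The cells were primary mononuclear tumour cells, either fresh or cryopreserved, isolated by Ficoll from blood or bone marrow or derived from processed lymph node. Each well of a 384-well plate received 4 × 10^4 cells onto compounds pre-plated at five concentrations, with one well per concentration. The medium was RPMI-1640 with penicillin/streptomycin, L-glutamine and human serum, and plates stood at 37 °C and 5% CO2 for 48 h. Viability is reported as CellTiter-Glo luminescence relative to the median of 16 inner DMSO wells.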

[2] = test system: primary AML patient cells (S081)
Procedure, shortened: as §1

[3] = test system: primary AML patient cells (S002)
Procedure, shortened: as §1

[4] = test system: primary MCL patient cells (S063)
Procedure, shortened: as §1

[5] = test system: primary AML patient cells (S025)
Procedure, shortened: as §1

[6] = test system: primary AML patient cells (S012)
Procedure, shortened: as §1

[7] = test system: primary MCL patient cells (S068)
Procedure, shortened: as §1

[8] = test system: primary AML patient cells (S056)
Procedure, shortened: as §1

[9] = test system: primary AML patient cells (S009)
Procedure, shortened: as §1

[10] = test system: primary AML patient cells (S079)
Procedure, shortened: as §1

[11] = test system: primary AML patient cells (S017)
Procedure, shortened: as §1

[12] = test system: primary AML patient cells (S055)
Procedure, shortened: as §1

[13] = test system: primary ALL patient cells (S048)
Procedure, shortened: as §1

[14] = test system: primary AML patient cells (S021)
Procedure, shortened: as §1

[15] = test system: primary T-PLL patient cells (S008)
Procedure, shortened: as §1

[16] = test system: primary AML patient cells (S006)
Procedure, shortened: as §1

[17] = test system: primary MCL patient cells (S053)
Procedure, shortened: as §1

[18] = test system: primary BL patient cells (S005)
Procedure, shortened: as §1

[19] = test system: primary AML patient cells (S072)
Procedure, shortened: as §1

[20] = test system: primary FL patient cells (S022)
Procedure, shortened: as §1

Work on `CS(=O)(=O)c1ccc(C(=O)Nc2ccc(Cl)c(-c3ccccn3)c2)c(Cl)c1` [Vismodegib] yielded a viability ([1]; 0.024 µM) of 0.915, a viability ([1]; 0.12 µM) of 0.903 and a viability ([1]; 0.6 µM) of 0.923. For the same molecule, the viability ([1]; 3 µM) was 0.922, the viability ([1]; 15 µM) was 0.965 and the viability ([2]; 0.024 µM) was 0.926. For the same molecule, the viability ([2]; 0.12 µM) was 0.946, the viability ([2]; 0.6 µM) was 0.915 and the viability ([2]; 3 µM) was 0.923. For the same molecule, the viability ([2]; 15 µM) was 1, the viability ([3]; 0.024 µM) was 0.854 and the viability ([3]; 0.12 µM) was 0.923. The viability ([3]; 0.6 µM) was 0.862, the viability ([3]; 3 µM) was 0.957 and the viability ([3]; 15 µM) was 0.87. The viability ([4]; 0.024 µM) was 0.93, the viability ([4]; 0.12 µM) was 0.956 and the viability ([4]; 0.6 µM) was 0.911. It also gave a viability ([4]; 3 µM) of 0.925, a viability ([4]; 15 µM) of 0.921 and a viability ([5]; 0.024 µM) of 0.963. For the same molecule, the viability ([5]; 0.12 µM) was 0.984, the viability ([5]; 0.6 µM) was 0.955 and the viability ([5]; 3 µM) was 0.89. It also gave a viability ([5]; 15 µM) of 0.902, a viability ([6]; 0.024 µM) of 0.993 and a viability ([6]; 0.12 µM) of 1. The viability ([6]; 0.6 µM) was 0.995, the viability ([6]; 3 µM) was 0.936 and the viability ([6]; 15 µM) was 1. It also gave a viability ([7]; 0.024 µM) of 0.891, a viability ([7]; 0.12 µM) of 0.929 and a viability ([7]; 0.6 µM) of 0.949. For the same molecule, the viability ([7]; 3 µM) was 0.992, the viability ([7]; 15 µM) was 1.07 and the viability ([8]; 0.024 µM) was 0.986. It also gave a viability ([8]; 0.12 µM) of 1.07, a viability ([8]; 0.6 µM) of 0.913 and a viability ([8]; 3 µM) of 0.783. For the same molecule, the viability ([8]; 15 µM) was 0.845, the viability ([9]; 0.024 µM) was 0.913 and the viability ([9]; 0.12 µM) was 0.918. The viability ([9]; 0.6 µM) was 0.944, the viability ([9]; 3 µM) was 0.942 and the viability ([9]; 15 µM) was 0.939. It also gave a viability ([10]; 0.024 µM) of 0.897, a viability ([10]; 0.12 µM) of 0.894 and a viability ([10]; 0.6 µM) of 0.899. For the same molecule, the viability ([10]; 3 µM) was 0.871, the viability ([10]; 15 µM) was 0.818 and the viability ([11]; 0.024 µM) was 0.901. For the same molecule, the viability ([11]; 0.12 µM) was 0.922, the viability ([11]; 0.6 µM) was 0.907 and the viability ([11]; 3 µM) was 0.927. It also gave a viability ([11]; 15 µM) of 0.955, a viability ([12]; 0.024 µM) of 0.914 and a viability ([12]; 0.12 µM) of 0.927. For the same molecule, the viability ([12]; 0.6 µM) was 0.931, the viability ([12]; 3 µM) was 0.925 and the viability ([12]; 15 µM) was 0.964. The viability ([13]; 0.024 µM) was 0.921, the viability ([13]; 0.12 µM) was 0.941 and the viability ([13]; 0.6 µM) was 0.933. For the same molecule, the viability ([13]; 3 µM) was 0.948, the viability ([13]; 15 µM) was 1.1 and the viability ([14]; 0.024 µM) was 0.893. It also gave a viability ([14]; 0.12 µM) of 0.888, a viability ([14]; 0.6 µM) of 0.886 and a viability ([14]; 3 µM) of 0.858. For the same molecule, the viability ([14]; 15 µM) was 0.808, the viability ([15]; 0.024 µM) was 0.941 and the viability ([15]; 0.12 µM) was 0.932. It also gave a viability ([15]; 0.6 µM) of 0.983, a viability ([15]; 3 µM) of 0.938 and a viability ([15]; 15 µM) of 0.926. It also gave a viability ([16]; 0.024 µM) of 0.902, a viability ([16]; 0.12 µM) of 0.951 and a viability ([16]; 0.6 µM) of 0.886. For the same molecule, the viability ([16]; 3 µM) was 0.885, the viability ([16]; 15 µM) was 0.954 and the viability ([17]; 0.024 µM) was 0.915. The viability ([17]; 0.12 µM) was 0.932, the viability ([17]; 0.6 µM) was 0.893 and the viability ([17]; 3 µM) was 0.9. The viability ([17]; 15 µM) was 1.05, the viability ([18]; 0.024 µM) was 1.12 and the viability ([18]; 0.12 µM) was 0.893. It also gave a viability ([18]; 0.6 µM) of 1.12, a viability ([18]; 3 µM) of 1.14 and a viability ([18]; 15 µM) of 0.824. It also gave a viability ([19]; 0.024 µM) of 0.969, a viability ([19]; 0.12 µM) of 0.954 and a viability ([19]; 0.6 µM) of 0.903. For the same molecule, the viability ([19]; 3 µM) was 0.902, the viability ([19]; 15 µM) was 0.927 and the viability ([20]; 0.024 µM) was 0.868. It also gave a viability ([20]; 0.12 µM) of 0.958, a viability ([20]; 0.6 µM) of 0.886 and a viability ([20]; 3 µM) of 0.911. It also gave a viability ([20]; 15 µM) of 0.971.
